Test results: patent US8748481B2, “Method for treating gastrointestinal disorder” (Sucampo AG, priority 2004, dated 2014)
Marks after values point to notes of the source that are not given here.

System: subjects with occasional constipation
Assay: MOS SF-36 quality of life assessment, 48-week study (Example 6)
Assay type: in vivo, human
Experimental: A 48-week multi-center study was performed to assess the safety and efficacy of 48 μg (total daily dose) of Compound A to subjects with occasional constipation. […] After 14-day drug-free washout period, they received orally 48 μg of Compound A (24 μg of […], b.i.d) daily for 48 weeks.
The subjects completed the Medical Outcomes Study (MOS) 36-item short form (SF-36), i.e., a conventionally used QOL assessment form, at enrollment (baseline) and end of treatment (Week 48). Components of the MOS SF-36 (Med Care 30(6),473-483, 1992) are outlined below: • Physical component: Physical Function; Role-Physical, Bodily Pain and General Health • Mental component: Vitality, Social Function, Role-Emotional and Mental Health
Each of the 8 components was scored within the guidelines of the publisher, including the publisher's guidelines for imputing missing variables. The change from baseline in each of the 8 component scores at the end of treatment (Week 48) were recorded and evaluated with paired t-tests.

Compound: CCCCC(F)(F)C(=O)CCC1C(O)CC(=O)C1CCCCCCC(=O)O (centres unmarked) [Compound A, 13,14-dihydro-15-keto-16,16-difluoro-PGE1]
- Effect on QOL of the patients (SF-36) (48 μg/day, 48 weeks): improves the QOL
- SF36 Bodily Pain score, Mean (Baseline): 47.53
- SF36 General Health score, Mean (Baseline): 51.52
- SF36 Mental Health score, Mean (Baseline): 50.60
- SF36 Physical Function score, Mean (Baseline): 49.04
- SF36 Role-Emotional score, Mean (Baseline): 49.52
- SF36 Role-Physical score, Mean (Baseline): 49.75
- SF36 Social Function score, Mean (Baseline): 50.12
- SF36 Vitality score, Mean (Baseline): 50.61
- SF36 Bodily Pain score, Mean change from baseline (Week 48, 48 μg/day): 3.38**
- SF36 General Health score, Mean change from baseline (Week 48, 48 μg/day): 1.47*
- SF36 Mental Health score, Mean change from baseline (Week 48, 48 μg/day): 1.97**
- SF36 Physical Function score, Mean change from baseline (Week 48, 48 μg/day): 2.48**
- SF36 Role-Emotional score, Mean change from baseline (Week 48, 48 μg/day): 1.22
- SF36 Role-Physical score, Mean change from baseline (Week 48, 48 μg/day): 1.95**
- SF36 Social Function score, Mean change from baseline (Week 48, 48 μg/day): 2.22**
- SF36 Vitality score, Mean change from baseline (Week 48, 48 μg/day): 2.89**
